Measured values reported in article PMC3804129 (Journal of medicinal chemistry, 2013).
Each block holds one compound with its values, some of them ahead of it.

Biological target: T1, human VAChT (Homo sapiens, UniProt Q16572)
T1 sequence (Q16572 1-532): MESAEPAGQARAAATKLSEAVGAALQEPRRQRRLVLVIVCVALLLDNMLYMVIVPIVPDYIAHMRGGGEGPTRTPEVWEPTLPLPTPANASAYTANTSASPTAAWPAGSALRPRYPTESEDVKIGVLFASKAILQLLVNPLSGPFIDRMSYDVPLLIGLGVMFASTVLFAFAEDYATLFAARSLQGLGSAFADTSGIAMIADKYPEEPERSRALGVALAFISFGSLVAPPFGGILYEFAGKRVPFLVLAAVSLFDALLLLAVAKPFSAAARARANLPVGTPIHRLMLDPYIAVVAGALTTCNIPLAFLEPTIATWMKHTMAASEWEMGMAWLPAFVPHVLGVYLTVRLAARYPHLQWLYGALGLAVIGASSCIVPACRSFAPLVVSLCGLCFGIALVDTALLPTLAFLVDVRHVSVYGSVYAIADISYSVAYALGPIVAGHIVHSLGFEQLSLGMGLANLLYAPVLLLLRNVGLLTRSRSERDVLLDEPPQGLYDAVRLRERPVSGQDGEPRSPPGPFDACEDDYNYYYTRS
Assay: VAChT binding assay, displacement of
Settings: for decrease in affinity for VAChT compared to 9: relative to compound 9; for selectivity for VAChT over σ receptors (σ1 and σ2): versus either sigma receptor type; for decrease in affinity for VAChT compared to 19e: relative to compound 19e; for VAChT selectivity Kiσ1/Ki VAChT: Ki for σ1 divided by Ki for VAChT

SMILES: Cn1cccc1C(=O)C1CCN(C2Cc3ccccc3CC2O)CC1 (racemic) [Compound 19a, (1-(3-Hydroxy-1,2,3,4-tetrahydronaphthalen-2-yl)piperidin-4-yl)(1-methyl-1H-pyrrol-2-yl)methanone]
- decrease in affinity for VAChT compared to 9: 4-5 fold
- selectivity for VAChT over σ receptors (σ1 and σ2): > 70 fold

SMILES: Cn1ccc(C(=O)C2CCN(C3Cc4ccccc4CC3O)CC2)c1 (racemic) [Compound 19b, (1-(3-Hydroxy-1,2,3,4-tetrahydronaphthalen-2-yl)piperidin-4-yl)(1-methyl-1H-pyrrol-3-yl)methanone]
- decrease in affinity for VAChT compared to 9: 4-5 fold

- lower affinity for VAChT compared to benzoyl counterpart 5 (relative to compound 5): 5 fold
SMILES: O=C(c1cccnc1)C1CCN(C2Cc3ccccc3CC2O)CC1 (racemic) [Compound 19c, (1-(3-Hydroxy-1,2,3,4-tetrahydronaphthalen-2-yl)piperidin-4-yl)(pyridin-3-yl)methanone]

SMILES: COc1cccnc1C(=O)C1CCN(C2Cc3ccccc3CC2O)CC1 (racemic) [Compound 19f, (1-(3-Hydroxy-1,2,3,4-tetrahydronaphthalen-2-yl)piperidin-4-yl)(3-methoxypyridin-2-yl)methanone]
- decrease in affinity for VAChT compared to 19e: 15 fold

SMILES: O=C(c1cncc(F)c1)C1CCN(C2Cc3ccccc3CC2O)CC1 (racemic) [Compound 19g, (5-Fluoropyridin-3-yl)(1-(3-hydroxy-1,2,3,4-tetrahydronaphthalen-2-yl)piperidin-4-yl)methanone]
- selectivity for VAChT over σ receptors (σ1 and σ2): > 70 fold

SMILES: O=C(c1cccnc1F)C1CCN(C2Cc3ccccc3CC2O)CC1 (racemic) [Compound 19k, (2-Fluoropyridin-3-yl)(1-(3-hydroxy-1,2,3,4-tetrahydronaphthalen-2-yl)piperidin-4-yl)methanone]
- VAChT selectivity Kiσ1/Ki VAChT: 100

SMILES: CNc1ccc(C(=O)C2CCN(C3Cc4ccccc4CC3O)CC2)cc1 (racemic) [Compound 24b, (1-(3-Hydroxy-1,2,3,4-tetrahydronaphthalen-2-yl)piperidin-4-yl)(4-(methylamino)phenyl) methanone]
- VAChT selectivity Kiσ1/Ki VAChT: 100

SMILES: O=C(c1ccc(OCCF)nc1)C1CCN(C2Cc3ccccc3CC2O)CC1 (racemic) [Compound 26a, (6-(2-Fluoroethoxy)pyridin-3-yl)(1-(3-hydroxy-1,2,3,4-tetrahydronaphthalen-2-yl)-piperidin-4-yl)methanone]
- decrease in affinity for VAChT compared to 19e: 4.5 fold

- higher VAChT binding affinity than 31a (relative to compound 31a): 60 fold
SMILES: Cn1cccc1C(=O)C1CCN(C2Cc3c(N)cccc3CC2O)CC1 (racemic) [Compound 30a, (1-(8-Amino-3-hydroxy-1,2,3,4-tetrahydronaphthalen-2-yl)piperidin-4-yl)(1-methyl-1Hpyrrol-2-yl)methanone]
